Experiment [1] deals with human peripheral blood B cells. The experiment in a line: Etoposide-induced apoptosis in B cells. In kind it is cell-based. As to conditions: B cells (FIG. 1c). The procedure:
(§1) DNA fragmentation was determined by FACS.
(§2) Next, we asked whether Roc-A could also protect other normal primary cells from DNA damage-induced toxicity. To address this question, we examined the protective effect of Roc-A on Etoposide-treated human peripheral blood B cells, NK cells, neutrophils, cardiomyocytes and murine hematopoietic stem and progenitor cells (HSPCs).

The next experiment deals with NK cells. Description: Etoposide-induced apoptosis in NK cells. The experiment is classed as cell-based, human. The settings on record: NK cells (FIG. 1c). How it is done:
as §1, §2

The subject of experiment [2] is murine hematopoietic stem and progenitor cells (HSPCs). Description: Etoposide-induced apoptosis in hematopoietic stem and progenitor cells. In kind it is cell-based, mouse. The settings on record: HSPCs (FIG. 1c). The procedure:
as §1
To perform lineage depletion, bone marrow cells were incubated on ice for 40 minutes with rat monoclonal antibodies against common epitopes expressed on mature blood and bone marrow cells (CD11b (M1/70), Gr-1 (RB6.8C5), CD4 (GK1.5), CD8a (53.6.7), Ter119 (Ter119) and B220 (RA3-6B2)). Subsequently, cells were washed and incubated for 15 minutes on ice with anti-rat IgG-coated Dynabeads (4.5 μm supermagnetic polystyrene beads, Invitrogen), 1 ml of beads per 3×10^8 bone marrow cells. Cells expressing lineage markers were depleted using a magnet and the remaining lineage-negative cells were isolated and washed. To provide optimal conditions for HSPCs in downstream experiments lineage-negative hematopoietic stem and progenitor-enriched cells were cultured in StemPro®-34 serum-free medium (Invitrogen, Darmstadt, Germany) supplemented with nutrient supplement (Invitrogen, Darmstadt, Germany) as well as recombinant TPO (50 ng/ml, (Peprotech, Hamburg, Germany)), SCF (50 ng/ml, (Peprotech, Hamburg, Germany)) and Flt3-ligand (50 ng/ml, (Peprotech, Hamburg, Germany)).
Next, we asked whether Roc-A could also protect other normal primary cells from DNA damage-induced toxicity. […]

A further experiment deals with p53-knockdown T cells. The experiment in a line: Etoposide-induced cell death in p53 siRNA knock-down T cells. In kind it is cell-based, human. As to conditions: Etoposide 50 μM, Roc-A 75 nM, 24 h (FIG. 4a). How it is done: as §1
siRNAs specific for p53 mRNA was 5′-[…]tt-3′ (SEQ ID NO: 1; [Applied Biosystems, Darmstadt, Germany]). 1.5×10^7 human peripheral blood T cells were transfected with 2 μM of p53 siRNA or of scrambled siRNA (Qiagen, Hilden, Germany) using Amaxa Human T Cell Nucleofector Kit (Lonza, Basel, Switzerland) according to the manufacturer's instructions. The Amaxa Nucleofector program U-014 was used for transfection.
To further investigate the role of p53 in Roc-A-mediated protection of T cells against DNA damage-induced apoptosis, we performed a p53 knock-down experiment using a siRNA approach (FIG. 4a, upper panel). […] Therefore, we examined the effect of Roc-A on p53 knock-out (KO) cells.

The subject of experiment [3] is protein synthesis in T cells. The experiment in a line: Translation assay: [35S]methionine incorporation in T cells. In kind it is cell-based, human. The settings on record: T cells (FIG. 6b). How it is done: The relative amount of protein synthesis was determined by measuring the amount of incorporation of ^35S-methionine into the protein. Briefly, cells were pre-cultured in methionine-free medium (supplemented with 10% dialyzed FCS) for 3 h, followed by incubation with 3.5 μCi of ^35S-methionine-labeling mix (PerkinElmer, Waltham, Mass., USA) per 8×10^5 cells for 6 h as indicated. After the treatment, cells were washed twice with ice-cold PBS and lysed in RIPA buffer. 50 μl of each lysate were added to 1 ml of Liquid Scintillation Cocktail solution (Beckman Coulter, Brea, Calif., USA) and the amount of incorporated radioactivity was determined by liquid scintillation counting.
Roc-A has been well documented to inhibit protein translation (Polier et al., Chem Biol. 2012; 19: 1093-1104; Sadlish et al., ACS Chem Biol. 2013; doi:10.1021/cb400158t; Bleumink et al., Cell Death Differ. 2011; 18: 362-370; Cencic et al., PloS one. 2009; 4: e5223). Thus, we expected that Roc-A-mediated suppression of genotoxin-induced p53 upregulation may be regulated by inhibition of p53 protein synthesis.

In the next experiment the test system is p53 protein synthesis. Description: Metabolic pulse-labeling and immunoprecipitation of p53. The experiment is classed as cell-based, human. The settings on record: T cells, after Etoposide treatment, pulse-labeling (FIG. 6c). How it is done:
Subsequently, cells were washed in ice-cold PBS, lysed in IP buffer (20 mM Tris-HCl, […], 2 mM EDTA, 1% Triton X-100, protease inhibitors) and centrifuged (10,000 g, 20 min) to clear lysates. Aliquots were taken for input control and lysates were incubated overnight with sepharose-coupled protein A beads, anti-p53 antibody (FL-393; Santa Cruz, Heidelberg, Germany) or isotype control antibody (Sigma-Aldrich, Munich, Germany). Two wash-steps with IP buffer preceded boiling of beads in denaturing sample buffer at 95° C. for […]. Incorporation of […] into p53 protein was detected by the phosphoimaging system FLA-7000 IR (Fujifilm Europe GmbH, Düsseldorf, Germany).
Thus, Roc-A suppresses DNA-damage-induced upregulation of p53 at the translational level.

The subject of another experiment is ERK. As to conditions: Polier et al., op. cit.; cited from earlier work.

SMILES strings stand for the structures. “Also recorded” adds a separate entry of the source.

We go through one molecule from patent US20160287553A1, “TRANSLATION INHIBITORS IN HIGH-DOSE CHEMO- AND/OR HIGH-DOSE RADIOTHERAPY” (DEUTSCHES KREBSFORSCHUNGSZENTRUM, priority 2013, published 2016).

With `COc1ccc([C@@]23Oc4cc(OC)cc(OC)c4[C@]2(O)[C@H](O)[C@H](C(=O)N(C)C)[C@H]3c2ccccc2)cc1` [Roc-A, (1R,2R,3S,3aR,8bS)-1,8b-dihydroxy-6,8-dimethoxy-3a-(4-methoxyphenyl)-N,N-dimethyl-3-phenyl-2,3-dihydro-1H-cyclopenta[b][1]benzofuran-2-carboxamide], the “Protection against Etoposide-induced apoptosis” value (in experiment [1]; in the experiment on NK cells; in experiment [2]) was “protected” each time. Besides, the “Etoposide-induced apoptosis in p53-knockdown cells” value in the experiment on p53-knockdown T cells is “could still further down-regulate Etoposide-induced apoptosis in p53-knockdown cells”. Besides, in experiment [3], the “Inhibition of [35S]methionine incorporation (protein translation)” value is “inhibited [^35S]methionine incorporation at different degrees”. The “[35S]methionine incorporation into the p53 protein” value in the experiment with p53 protein synthesis was “inhibits p53 protein translation; also recorded: suppressed [^35S]methionine incorporation into the p53 protein”. Moreover, the “Inhibitory effect on ERK activity / activation” value in the experiment on ERK is listed as “inhibit ERK activation with different efficacies”.
